Where two headings read alike, the source gives them in different places.

The source of these data is publication PMC7393058, “Design, Synthesis, Molecular Modeling Study and Biological Evaluation of New N'-Arylidene-pyrido [2,3-d]pyrimidine-5-carbohydrazide Derivatives as Anti-HIV-1 Agents” (Iranian Journal of Pharmaceutical Research : IJPR, 2019).

Data set [1] has as its system single cycle replicable HIV NL4-3. Nature of the data set: single-round replication assay, inhibition of p24 expression (capture ELISA) in Hela cells. In kind it is cell-based, HIV-1. The settings on record: for SI=CC50/EC50: selectivity index, CC50/EC50 ratio. As for the experimental part: (§1) The evaluation of inhibitory effect of synthesized compounds was performed by single-round replication assay which was evaluated in our laboratory and reported previously ([34]-[40]). Briefly, Hela cells (6 × 10^3 per well of 96-wells plate) were incubated with single cycle replicable HIV NL4-3 virions (200 ng p24) in the presence of various concentrations of compounds which were added concurrently with viral infection. The supernatants were collected 72 h postinfection and evaluated for p24 antigen load by capture ELISA (Biomerieux, France). Percentage inhibition of p24 expression in the treated culture was calculated as inhibition rate of p24 (%). The 50% effective concentration (EC50) was determined for each compound. XTT proliferation method was performed to evaluate the cellular toxicity of compounds. Toxicities of the compounds against the cells were quantified using XTT (sodium 3-[1 (phenyl aminocarbonyl)-3,4-tetrazolium]-bis(4-methoxy-6-nitro)benzene sulfonic acid) reagent, according to the kit instruction (Roche, Germany) ([41], [42]). Concentration which reduces proliferation of 50% of cells (CC50) was calculated subsequent to determination of p24 load. For EC50 and CC50 determinations, the compounds were tested at six concentrations ([…]) in triplicates.
(§2) All new synthesized compounds were evaluated for their activity against single cycle replicable HIV NL4-3 by determining their ability to inhibit p24 expression in Hela cell cultures. The well-known nucleoside RT inhibitor (AZT) was assayed in the same cells for comparative purpose. They all were then subjected to cell based XTT colorimetric assay for cytotoxicity to ensure that the anti-HIV-1 activity of the compounds was not a result of their cytotoxic effects ([43], [44]). The biological results are expressed as EC50, CC50, and SI (selectivity index, given by the CC50/EC50 ratio). […] When comparing the anti-HIV-1 activity of tested compounds, it appeared that the presence of substituents on benzylidene fragment confers better inhibition than the unsubstituted counterparts (compound 5a, EC50 >[…]).

For another data set, the system named is Hela cells. Nature of the data set: XTT proliferation (cytotoxicity) assay. Format: cell-based, human. Here is the method:
as §1, §2
(In general: Formazan colour is commonly taken as a measure of viable cells.)

Data set [2] is described as follows: XTT proliferation (cytotoxicity) assay. Format: cell-based, human. As to conditions: human; XTT, Hela cells. As for the experimental part: as §1, §2
[3] abbreviates: Human immunodeficiency virus 1, NL43, HeLa, 72 h.

As usually defined, the melting point is the temperature of the solid-liquid transition. On to `Cc1ccccc1C=NNC(=O)c1cc(=O)[nH]c2c1c(=O)n(C)c(=O)n2C`, for which the melting point is 277 °C (dec.).

As to `Cn1c(=O)c2c(C(=O)NN=Cc3ccc(F)cc3)cc(=O)[nH]c2n(C)c1=O`, the melting point lay in the range of 220.7 to 221.3 °C.

In general, EC50 refers to the concentration that produces a half-maximal response. By CC50 is commonly meant the concentration giving 50% cytotoxicity. Low readings indicate greater toxicity to the cells, high ones lower toxicity to the cells. `Cc1cn([C@H]2C[C@H](N=[N+]=[N-])[C@@H](CO)O2)c(=O)[nH]c1=O` [AZT, reference compound]: the 50% effective concentration (EC50) in data set [1] (inhibition of p24 expression, Hela cells, 72 h postinfection, triplicates, read-out: EC50) turned out to be 0.018 µM. In the data set on Hela cells, this compound showed a CC50 greater than 200 µM.

As to `Cn1c(=O)c2c(C(=O)NN=Cc3ccccc3)cc(=O)[nH]c2n(C)c1=O` [Compound 5a, N’-benzylidene-1,3-dimethyl-2,4,7-trioxo-1,2,3,4,7,8-hexahydropyrido[2,3-d]pyrimidine-5-carbohydrazide], the melting point is 286 °C (dec.). Besides, in data set [1] (setting [3]), the concentration for a half-maximal effect (EC50) was greater than 200 µM. In data set [1], the “SI=CC50/EC50” value stood at 1.2. Besides, in data set [2], the CC50 at 72 h is greater than 200 µM.

Turning to `COc1ccccc1C=NNC(=O)c1cc(=O)[nH]c2c1c(=O)n(C)c(=O)n2C` [Compound 5b, N’-(2-methoxybenzylidene)-1,3-dimethyl-2,4,7-trioxo-1,2,3,4,7,8-hexahydropyrido[2,3-d]pyrimidine-5-carbohydrazide], the melting point was 231 °C (dec.). In data set [1] (setting [3]), a half-maximal response (EC50) required 120 µM. In addition, the “SI=CC50/EC50” value in data set [1] worked out at 3.75. In addition, the cytotoxic concentration (CC50) at 72 h in data set [2] was greater than 200 µM.

With `COc1cccc(C=NNC(=O)c2cc(=O)[nH]c3c2c(=O)n(C)c(=O)n3C)c1` [Compound 5c, N’-(3-methoxybenzylidene)-1,3-dimethyl-2,4,7-trioxo-1,2,3,4,7,8-hexahydropyrido[2,3-d]pyrimidine-5-carbohydrazide], the melting point is 231 °C (dec.). For the same compound, the EC50 in data set [1] (setting [3]) was 180 µM. Further, the “SI=CC50/EC50” value in data set [1] is 1.1. For the same compound, the CC50 at 72 h in data set [2] was greater than 200 µM.

`COc1ccc(C=NNC(=O)c2cc(=O)[nH]c3c2c(=O)n(C)c(=O)n3C)cc1` [Compound 5d, N’-(4-methoxybenzylidene)-1,3-dimethyl-2,4,7-trioxo-1,2,3,4,7,8-hexahydropyrido[2,3-d]pyrimidine-5-carbohydrazide]: the melting point is 231 °C (dec.). This compound also had a concentration giving a half-maximal response (EC50) in data set [1] (setting [3]) of 140 µM. Also, the “SI=CC50/EC50” value in data set [1] was 1.3. In data set [2], this compound displayed a half-maximal cytotoxic concentration (CC50) at 72 h of 185 µM.

For `Cn1c(=O)c2c(C(=O)NN=Cc3ccccc3Cl)cc(=O)[nH]c2n(C)c1=O` [Compound 5e, N’-(2-chlorobenzylidene)-1,3-dimethyl-2,4,7-trioxo-1,2,3,4,7,8-hexahydropyrido[2,3-d]pyrimidine-5-carbohydrazide], the melting point is 297 °C (dec.). The same compound came in with an EC50 in data set [1] (setting [3]) of 155 µM. The “SI=CC50/EC50” value in data set [1] was determined as 2.4. Moreover, in data set [2], the CC50 at 72 h is greater than 200 µM.

In the case of `Cn1c(=O)c2c(C(=O)NN=Cc3cccc(Cl)c3)cc(=O)[nH]c2n(C)c1=O` [Compound 5f, N’-(3-chlorobenzylidene)-1,3-dimethyl-2,4,7-trioxo-1,2,3,4,7,8-hexahydropyrido[2,3-d]pyrimidine-5-carbohydrazide], the melting point is 302 °C (dec.). Further, in data set [1] (setting [3]), the concentration giving a half-maximal response (EC50) stood at 120 µM. The “SI=CC50/EC50” value in data set [1] was 3.75. For the same compound, in data set [2], the CC50 at 72 h was greater than 200 µM.

As for `Cn1c(=O)c2c(C(=O)NN=Cc3ccc(Cl)cc3)cc(=O)[nH]c2n(C)c1=O` [Compound 5g, N’-(4-chlorobenzylidene)-1,3-dimethyl-2,4,7-trioxo-1,2,3,4,7,8-hexahydropyrido[2,3-d]pyrimidine-5-carbohydrazide], the melting point is 305 °C (dec.). Besides, it took 110 µM to reach a half-maximal effect in data set [1] (setting [3]) (EC50). For the same compound, the “SI=CC50/EC50” value in data set [1] amounted to 4.5. In data set [2], this compound registered a CC50 at 72 h greater than 200 µM.

Regarding `Cc1cccc(C=NNC(=O)c2cc(=O)[nH]c3c2c(=O)n(C)c(=O)n3C)c1` [Compound 5i, 1,3-Dimethyl-N’-(3-methylbenzylidene)-2,4,7-trioxo-1,2,3,4,7,8-hexahydropyrido[2,3-d]pyrimidine-5-carbohydrazide], the melting point was 280 °C (dec.). Also, the EC50 in data set [1] (setting [3]) turned out to be 125 µM. The “SI=CC50/EC50” value in data set [1] worked out at 4.8. Besides, the cytotoxic concentration (CC50) at 72 h in data set [2] is greater than 200 µM.

In the case of `Cc1ccc(C=NNC(=O)c2cc(=O)[nH]c3c2c(=O)n(C)c(=O)n3C)cc1` [Compound 5j, 1,3-Dimethyl-N’-(4-methylbenzylidene)-2,4,7-trioxo-1,2,3,4,7,8-hexahydropyrido[2,3-d]pyrimidine-5-carbohydrazide], the melting point was 284 °C (dec.). This compound also came in with an EC50 in data set [1] (setting [3]) of 90 µM. The CC50 at 72 h in data set [2] is greater than 200 µM.

`Cn1c(=O)c2c(C(=O)NN=Cc3cccc(F)c3)cc(=O)[nH]c2n(C)c1=O` [Compound 5k, N’-(3-fluorobenzylidene)-1,3-dimethyl-2,4,7-trioxo-1,2,3,4,7,8-hexahydropyrido[2,3-d]pyrimidine-5-carbohydrazide]: the melting point was 287 °C (dec.). Moreover, in data set [1] (setting [3]), the response was half-maximal at 140 µM (EC50). Further, in data set [1], the “SI=CC50/EC50” value is 2.7. Moreover, the 50% cytotoxic concentration (CC50) at 72 h in data set [2] is greater than 200 µM.
